Data on two compounds can be found in patent publication US12691100B2, “NMT inhibitor treatment of a senescence-associated disease or disorder of the liver” (Imperial College Innovations Limited, priority 2020, dated 2026).

One assay relates to IMR90 cells. The assay can be described thus: Senolytic survival assay, doxorubicin-induced senescence. The class given is cell-based, human. As to conditions: doxorubicin or DMSO; compounds added 7 days after induction; read 7 days later; FIGS. 3A-B. How it is done:
IMR90 cells were used to generate inducible ER:RAS (hereinafter iRAS) cells to model Oncogene induced senescence (OIS), through retroviral infection of pLNC-ER:RAS-neo into IMR90 cells followed by selection with Neomycin. IMR90 cells containing the pLNC-ER:RAS plasmid backbone pLXSN were infected in parallel to assess leakiness in the pLNC-ER:RAS system. Treatment with 100 nM 4OHT (Sigma, in DMSO) was used to induce IMR90 ER:RAS cells to undergo oncogene induced senescence (OIS). […]
High-throughput microscopy survival assay—To assess senolytic effect of drugs, cells were cultured for 7 days, culture media was changed to DM0.5 media and drugs in DMSO were added (<5% v/v final concentration), drugs were replenished after 3 days if assay length was longer than 72 h. […] Image acquisition of DAPI stained cells was performed on an automated InCell Analyser 2000 (GE Healthcare®) and high-content analysis on the InCell Investigator 2.7.3 software used to quantify number of DAPI positive cells per well. […] Survival was measured as cell counts relative to DMSO treated quiescent or senescent cells.
IMR90 cells were treated with doxorubicin (to induce senescence), or DMSO (as a control). […] Senolytic activity of inhibitors was determined 7 days after adding the drugs with replenishment after 3 days, cells were fixed, imaged and cells numbers were quantified using high throughput microscopy. […]

Assay [1] can be described thus: Liver lipids (Oil Red O) and blood glucose in the same cohort of old mice. The class given is in vivo, C57BL/6J female mice. As to conditions: 10 mg/kg i.p. How it is done: For analysis of immune cell composition in whole blood, tail-vein blood was collected 2 days after last treatment. Whole blood was diluted in saline to a volume of […] and ran on a Sysmex XE2100 automated cell counter. Blood glucose levels were determined by collecting whole-blood from tail vein into heparinised tubes (Abraxis), 120-140 μL of whole-blood to be loaded onto a comprehensive diagnostic profile reagent rotor (Abraxis) and run on a VetScan VS2 Chemistry Analyzer (Abraxis: 500-7123).
Oil Red O staining for lipids was carried out on liver tissue in OCT was snap-frozen in liquid N2 and cryosectioned (15 μM). Sections were equilibrated to RT for 10 min and then stained with 0.5% Oil Red O solution (w/v, in isopropanol, Sigma, O1391) for 5 min, rinsed in tap water and counterstained with Mayer's hematoxylin for 30 s. Then sections were again rinsed in tap water for 30 min and coverslips mounted. Images were acquired on Zeiss AxioScan Z.1 and ImageJ quantification of Oil-red stain area relative to background tissue area performed for 3 fields per section.
To understand what effects are associated with the treatment with NMT inhibitors in vivo, we analysed different parameters in the same cohort of old mice described in FIG. 17A. First, we looked into the accumulation of lipid droplets in the liver using Oil Red O staining. These are an indication of hepatic steatosis, and importantly, elimination of senescent cells has been previously shown capable to reduce steatosis.
Other pathological change observed in old mice is the presence of increased levels of glucose in blood. This can be related with diabetes or metabolic disease. Importantly, both pathologies have been associated with the presence of senescent cells.

The next assay has as its system senescent cells. The assay can be described thus: Senolytic activity in old mice (senescent-associated β-galactosidase staining). The class given is in vivo, C57BL/6J female mice. The following applies: ~26 month female mice, 10 mg/kg i.p., versus vehicle. How it is done:
Lung and liver samples frozen in optimal cutting temperature (OCT) were cryosectioned (15 μM) and frozen sections fixed in ice-cold 0.5% Glutaraldehyde (w/v, PBS) for 15 min and washed 1 mM MgCl2/PBS (pH 6.0) for 5 min. β-galactosidase activity was stained for with X-gal staining solution (1 mg ml^−1 X-gal, ThermoFisher Scientific, 5 mM K3(Fe(CN)6), 5 mM K4(Fe(CN)6)) for 18 h at 37° C. Slides were dehydrated and coverslips mounted prior to being imaged using 20× brightfield objective on Zeiss AxioScan Z.1 slide scanner. ImageJ was used to quantify staining by measuring the β-gal stained area as a percentage of the total tissue area excluding luminal spaces.

As for `Cc1nn(C)c(C)c1CCOc1c(-c2ccc3c(c2)c(CN(C)C)nn3C)ccc(F)c1F` [Compound 1, 1-(5-(3,4-difluoro-2-(2-(1,3,5-trimethyl-1H-pyrazol-4-yl)ethoxy)phenyl)-1-methyl-1H-indazol-3-yl)-N,N-dimethylmethanamine], the “Survival (cell counts relative to DMSO), senescent versus control cells” value in the assay with IMR90 cells was “selectively kill senescent cells induced to senescence by doxorubicin”.
As to `Cc1c(NS(=O)(=O)c2c(Cl)cc(-c3ccnc(N4CCNCC4)c3)cc2Cl)c(CC(C)C)nn1C` [Compound 2], the “Glucose in blood, fasted mice” value in assay [1] (old mice fasted, FIG. 18C) is given as “lower levels of glucose”. In addition, the “Glucose in blood, fed mice” value in assay [1] (old mice kept fed, FIG. 18B) was “lower levels of glucose”. For the same compound, the “Accumulation of lipids in the liver (Oil Red O staining)” value in assay [1] (~26 month female mice, FIG. 18A) is given as “reduced accumulation of lipids in the liver”. The “Senescent cells in livers (senescent-associated β-galactosidase staining)” value in the assay with senescent cells (FIG. 17B) was “lower levels of senescent cells”. The “Senescent cells in lungs (senescent-associated β-galactosidase staining)” value with senescent cells (FIG. 17C) was “lower levels of senescent cells”.
